# Results from US7511119B2, “PRAME peptide analogues” (MannKind Corporation, priority 2005, dated 2009).
# Square brackets hold non-standard residues; d marks the D form. Ends that are not written are not given here. Peptide text beside a SMILES is read from it. Phe(4-NO2) = N[C@@H](Cc1ccc([N+](=O)[O-])cc1)C(=O)O; Bta = N[C@@H](Cc1csc2ccccc12)C(=O)O; Phg = N[C@H](C(=O)O)c1ccccc1; Nle = CCCC[C@H](N)C(=O)O; Nva = CCC[C@H](N)C(=O)O
# Tests used:
# HLA-A*0201 = HLA-A*0201 (Homo sapiens, UniProt P04439, D140Y/D185E/D98H/E176V/E277Q/G131W/G231S/I119V/I121R/I166T/I218V/L300P/L318F/N151K/N90K/P208A/P217A/Q86G/Q94H/R138H/R169H/T345S); assay: Peptide binding using T2 cells; settings: half maximal binding of wild-type peptide relative to analog;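 further: Read-out is peptide-induced stabilization of HLA-A*0201 on the cell surface, reflecting mainly Kon at limiting peptide levels and both Kon and Koff at saturating levels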
# Description: Thus, at limiting concentrations of peptide, it is a measurement of Kon mostly and at saturation levels of peptide it is a measurement of both Kon and Koff.
# Thus, at limiting concentrations of peptide, this is a measurement of Kon mostly and at saturation levels of peptide that is a measurement of both Kon and Koff.
# [1] = tested on: T cell lines against natural epitope SSX-241-49; assay: Cross-reactivity and functional avidity: IFN-gamma production by T cell lines raised against natural SSX-2 41-49; assay type: cell-based, HHD transgenic mice; settings: T cells raised to native peptide tested on analogs; footnote * and unit not given;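 further: analogs presented ex vivo by competent APCs to T cells specific for the non-mutated epitope, scored by lowest activating concentration, peak cytokine effect and concentration at that peak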
# HLA-A*0201 on T2 cells = biological target: T1, HLA-A*0201 on T2 cells (human); assay: T2 cells, wild-type/analog half-maximal binding
# T1 construct: whole, on cells; Class I MHC on the surface of T2 cells, detected with a fluorescent anti-A2 antibody; beta2-microglobulin is not mentioned for this assay; also called MHC class I (A2 allele)
# [2] = biological target: T2, HLA-A*0201 class I monomer of the iTopia Epitope Discovery System; assay: iTopia affinity assay
# T2 construct: also called A0201 restricted MHC Class 1 molecules; MHC monomer
Molecule,Relative affinity (1/RA) (HLA-A*0201),Relative affinity (1/RA) (HLA-A*0201 on T2 cells),fold reduction of affinity (ED50) against the native peptide [2],Cross-reactivity and fct avidity (native to analogs)* [1]
"CC[C@H](C)[C@H](NC(=O)[C@H](CCCCN)NC(=O)[C@H](CCC(=O)O)NC(=O)[C@H](CO)NC(=O)[C@@H](NC(=O)[C@@H](N)Cc1ccc(O)cc1)C(C)C)C(=O)N[C@@H](Cc1ccccc1)C(=O)N[C@@H](Cc1ccc(O)cc1)C(=O)N[C@H](C(=O)O)C(C)C [SSX2 41-49 (K41Y, A42V)]",1.0,,,0.1
CC[C@H](C)[C@H](NC(=O)[C@H](CCCCN)NC(=O)[C@H](CCC(=O)O)NC(=O)[C@H](CO)NC(=O)[C@H](C)NC(=O)[C@@H](N)Cc1ccc([N+](=O)[O-])cc1)C(=O)N[C@@H](Cc1ccccc1)C(=O)N[C@@H](Cc1ccc(O)cc1)C(=O)N[C@H](C(=O)O)C(C)C [SSX2 41-49 (K41(Phe-4NO2))] (H-[Phe(4-NO2)]ASEKIFYV-OH),1.1,,,3
"CCC[C@H](NC(=O)[C@H](CO)NC(=O)[C@@H](NC(=O)[C@@H](N)Cc1ccccc1)C(C)C)C(=O)N[C@@H](CCCCN)C(=O)N[C@H](C(=O)N[C@@H](Cc1ccccc1)C(=O)N[C@@H](Cc1ccc(O)cc1)C(=O)N[C@H](C(=O)O)C(C)C)[C@@H](C)CC [SSX2 41-49 (K41F, A42V, E44Nva), FVS(Nva)KIFYV] (H-FVS[Nva]KIFYV-OH)",3.9,,,3
CC[C@H](C)[C@H](NC(=O)[C@H](CCCCN)NC(=O)[C@H](CCC(=O)O)NC(=O)[C@H](CO)NC(=O)[C@H](C)NC(=O)[C@@H](N)Cc1csc2ccccc12)C(=O)N[C@@H](Cc1ccccc1)C(=O)N[C@@H](Cc1ccc(O)cc1)C(=O)N[C@H](C(=O)O)C(C)C [SSX2 41-49 (K41(b-(3-benzothienyl)Ala))] (H-[Bta]ASEKIFYV-OH),0.6,,,10
KASEKIFYI-OH [SSX2 41-49(V49I)],1.0,,,10
CC[C@H](C)[C@H](NC(=O)[C@H](CCCCN)NC(=O)[C@H](CCC(=O)O)NC(=O)[C@H](CO)NC(=O)[C@H](C)NC(=O)[C@@H](N)c1ccccc1)C(=O)N[C@@H](Cc1ccccc1)C(=O)N[C@@H](Cc1ccc(O)cc1)C(=O)N[C@H](C(=O)O)C(C)C [SSX2 41-49 (K41(Phg))] (H-[Phg]ASEKIFYV-OH),2.5,,,0.1
"KLSEKIFYI [SSX2 41-49 (A42L, V49I)]",2.6,,,0.03
FVSEKLFSA,2.4,,,>10
"CCCC[C@H](NC(=O)[C@H](CO)NC(=O)[C@@H](NC(=O)[C@@H](N)Cc1ccccc1)C(C)C)C(=O)N[C@@H](CCCCN)C(=O)N[C@H](C(=O)N[C@@H](Cc1ccccc1)C(=O)N[C@@H](Cc1ccc(O)cc1)C(=O)N[C@H](C(=O)O)C(C)C)[C@@H](C)CC [SSX2 41-49 (K41F, A42V, E44Nle), FVS(Nle)KIFYV] (H-FVS[Nle]KIFYV-OH)",1.1,,,10
"WMSEKIFYV-OH [SSX2 41-49 (K41W, A42M)]",2.9,,,1
"CC[C@H](C)[C@H](NC(=O)[C@H](CCCCN)NC(=O)[C@H](CCC(=O)O)NC(=O)[C@H](CO)NC(=O)[C@@H](NC(=O)[C@@H](N)Cc1ccccc1)C(C)C)C(=O)N[C@@H](Cc1ccccc1)C(=O)N[C@@H](Cc1ccccc1)C(=O)N[C@H](C(=O)O)C(C)C [SSX2 41-49 (K41F, A42V, Y48F)]",1.7,,,10
"FISEKIFYV [SSX2 41-49 (K41F, A42I)]",2.7,,,0.3
"FVSEKLFTV [SSX2 41-49 (K41F, A42V, I46L, Y48T)]",2.6,,,>10
"FVSEKLFYV [SSX2 41-49 (K41F, A42V, I46L)]",1.9,,,3
"FVSEKIFSV [SSX2 41-49 (K41F, A42V, Y48S)]",3.9,,,>10
"YMSEKIFYV-OH [SSX2 41-49 (K41Y, A42M)]",0.6,,,3

Molecule,Relative affinity (1/RA) (HLA-A*0201),Relative affinity (1/RA) (HLA-A*0201 on T2 cells),fold reduction of affinity (ED50) against the native peptide [2],Cross-reactivity and fct avidity (native to analogs)* [1]
"WLSEKIFYV-OH [SSX2 41-49 (K41W, A42L)]",3.3,,,0.3
KMSEKIFYV [SSX2 41-49 (A42M)],1.7,,,0.1
"CCCC[C@H](NC(=O)[C@H](CCCCN)NC(=O)[C@H](CCC(=O)O)NC(=O)[C@H](CO)NC(=O)[C@@H](NC(=O)[C@@H](N)Cc1ccccc1)C(C)C)C(=O)N[C@@H](Cc1ccccc1)C(=O)N[C@@H](Cc1ccc(O)cc1)C(=O)N[C@H](C(=O)O)C(C)C [SSX2 41-49 (K41F, A42V, I46Nle), FVSEK(Nle)FYV] (H-FVSEK[Nle]FYV-OH)",1.1,,,10
"CCC[C@H](NC(=O)[C@H](CCCCN)NC(=O)[C@H](CCC(=O)O)NC(=O)[C@H](CO)NC(=O)[C@@H](NC(=O)[C@@H](N)Cc1ccccc1)C(C)C)C(=O)N[C@@H](Cc1ccccc1)C(=O)N[C@@H](Cc1ccc(O)cc1)C(=O)N[C@H](C(=O)O)C(C)C [SSX2 41-49 (K41F, A42V, I46Nva), FVSEK(Nva)FYV] (H-FVSEK[Nva]FYV-OH)",2.4,,,1
"FVSDKIFYV [SSX2 41-49 (K41F, A42V, E44D)]",,1.1 1/RA,,
"FVSEKIFTV [SSX2 41-49 (K41F, A42V, Y48T)]",,3.8 1/RA,,
"FVSEKIFFV [SSX2 41-49 (K41F, A42V, Y48F)]",,1.7 1/RA,,
"FVSEKLFTV [SSX2 41-49 (K41F, A42V, I46L, Y48T)]",,2.6 1/RA,,
"FVSEKLFYV [SSX2 41-49 (K41F, A42V, I46L)]",,1.9 1/RA,,
"FVSEKIFSV [SSX2 41-49 (K41F, A42V, Y48S)]",,3.9 1/RA,,
"FVSQKIFYV [SSX2 41-49 (K41F, A42V, E44Q)]",,0.4 1/RA,,
"FVSEKIFXV (P8 = Phe(4-F), 4-fluorophenylalanine, also called FVSEKIF(Phe-4F)V) [SSX2 41-49 (K41F, A42V, Y48(Phe-4F))]",,1.4 1/RA,,
"FVSEK[Nle]FYV (also called FVSEK(Nle)FYV) [SSX2 41-49 (K41F, A42V, I46Nle)]",,1.1 1/RA,,
S[Nva]LQHLIGL [PRAME425-433 analog with Nva at P2],,,≤ 3 fold,
"FVSEK[Nva]FYV (also called FVSEK(Nva)FYV) [SSX2 41-49 (K41F, A42V, I46Nva)]",,2.4 1/RA,,

# More lines, main results first:
Relative affinity (1/RA) (HLA-A*0201),Relative affinity (1/RA) (HLA-A*0201 on T2 cells),fold reduction of affinity (ED50) against the native peptide [2],Molecule,Cross-reactivity and fct avidity (native to analogs)* [1]
1.1,,,"FVSDKIFYV [SSX2 41-49 (K41F, A42V, E44D)]",>10
1.7,,,KISEKIFYV [SSX2 41-49 (A42I)],3
3.0,,,"WVSEKIFYV-OH [SSX2 41-49 (K41W, A42V)]",1
0.4,,,"FVSQKIFYV [SSX2 41-49 (K41F, A42V, E44Q)]",10
0.8,,,CC[C@H](C)[C@H](NC(=O)[C@H](CCCCN)NC(=O)[C@H](CCC(=O)O)NC(=O)[C@H](CO)NC(=O)[C@H](C)NC(=O)[C@@H](N)Cc1ccc(OC)cc1)C(=O)N[C@@H](Cc1ccccc1)C(=O)N[C@@H](Cc1ccc(O)cc1)C(=O)N[C@H](C(=O)O)C(C)C [SSX2 41-49 (K41(O-methyl Tyr))] (H-Y(Me)ASEKIFYV-OH),3
3.1,,,"FVSEKIFYV [SSX2 41-49 (K41F, A42V)]",0.1
0.8,,,"FVSEKIFYM [SSX2 41-49 (K41F, A42V, V49M)]",>10
3.8,,,"FVSEKIFTV-OH [SSX2 41-49 (K41F, A42V, Y48T)]",>10
2.5,,,"CC[C@H](C)[C@H](NC(=O)[C@H](CCCCN)NC(=O)[C@H](CCC(=O)O)NC(=O)[C@H](CO)NC(=O)[C@@H](NC(=O)[C@@H](N)Cc1ccccc1)C(C)C)C(=O)N[C@@H](Cc1ccccc1)C(=O)N[C@H](C(=O)N[C@H](C(=O)O)C(C)C)c1ccccc1 [SSX2 41-49 (K41F, A42V, Y48Phg), FVSEKIF(Phg)V] (H-FVSEKIF[Phg]V-OH)",>10
1.2,,,"YLSEKIFYV-OH [SSX2 41-49 (K41Y, A42L)]",
,2.5 1/RA,,"FVSEKIF[Phg]V (also called FVSEKIF(Phg)V) [SSX2 41-49 (K41F, A42V, Y48Phg)]",
,2.4 1/RA,,"FVSEKLFSA [SSX2 41-49 (K41F, A42V, I46L, Y48S, V49A)]",
,1.1 1/RA,,"FVS[Nle]KIFYV (also called FVS(Nle)KIFYV) [SSX2 41-49 (K41F, A42V, E44Nle)]",
,3.9 1/RA,,"FVS[Nva]KIFYV (also called FVS(Nva)KIFYV) [SSX2 41-49 (K41F, A42V, E44Nva)]",
